32 compounds from patent US5424451A, “Process for preparing aminoalkylcarbamic esters of eseroline” (priority 1992, dated 1995) can be followed below.

Read-outs that look alike come from different tables or passages of the source.

In assay [1] the target is T1, acetylcholinesterase from human red blood cells (Homo sapiens, UniProt P22303).
T1 construct: purchased Sigma Chemical; host or cells: human erythrocyte
The assay is described as follows: Inhibition of acetylcholinesterase from human erythrocyte (Ellman colorimetric method). In kind it is biochemical. Conditions: for Activity against human red blood cells acetylcholinesterase (in words): Table 2 results. On the technique in general: In Ellman's method for cholinesterases, released thiocholine reacts with DTNB.

The target in assay [2] is T2, acetylcholinesterase from electric eel (Electrophorus electricus, UniProt O42275).
T2 construct: purchased Sigma Chemical; host or cells: electric eel
The assay is described as follows: biochemical.

In assay [3] the target is T3, butyrylcholinesterase from human serum (Homo sapiens, UniProt P06276).
T3 construct: purchased Sigma Chemical; host or cells: human serum
Briefly: Inhibition of butyrylcholinesterase from human serum (Ellman colorimetric method). In kind it is biochemical.

The mark [4] stands for this setting: contact time 10', read-out: Cholinesterase Inhibition IC50, AChE hRBC.
Where [5] appears, read: Cholinesterase Inhibition IC50, AChE hRBC, contact time 10'.
[6] abbreviates: Cholinesterase Inhibition IC50, AChE E.eel, contact time 10'.
[7] abbreviates: Cholinesterase Inhibition IC50, AChE hRBC, contact time 30'.
[8] abbreviates: Cholinesterase Inhibition IC50, AChE hRBC, contact time 60'.

T2 sequence (O42275 24-633): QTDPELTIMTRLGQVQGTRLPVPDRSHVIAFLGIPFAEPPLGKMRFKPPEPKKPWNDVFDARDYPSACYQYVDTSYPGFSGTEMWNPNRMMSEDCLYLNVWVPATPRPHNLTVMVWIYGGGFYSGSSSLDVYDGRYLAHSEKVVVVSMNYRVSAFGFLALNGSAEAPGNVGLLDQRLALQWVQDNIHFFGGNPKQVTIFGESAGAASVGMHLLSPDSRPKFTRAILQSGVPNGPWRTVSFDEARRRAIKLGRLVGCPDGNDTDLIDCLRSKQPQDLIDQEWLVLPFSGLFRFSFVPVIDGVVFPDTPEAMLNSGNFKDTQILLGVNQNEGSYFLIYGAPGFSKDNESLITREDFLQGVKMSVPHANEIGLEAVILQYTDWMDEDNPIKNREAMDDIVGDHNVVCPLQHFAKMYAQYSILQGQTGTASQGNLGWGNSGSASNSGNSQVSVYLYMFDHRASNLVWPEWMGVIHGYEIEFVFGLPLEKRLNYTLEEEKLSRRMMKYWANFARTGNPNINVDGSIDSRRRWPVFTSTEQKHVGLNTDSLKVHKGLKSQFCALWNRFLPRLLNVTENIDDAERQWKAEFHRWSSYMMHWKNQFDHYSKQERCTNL
T1 sequence (P22303 32-617 isoform P22303-2 limits assumed): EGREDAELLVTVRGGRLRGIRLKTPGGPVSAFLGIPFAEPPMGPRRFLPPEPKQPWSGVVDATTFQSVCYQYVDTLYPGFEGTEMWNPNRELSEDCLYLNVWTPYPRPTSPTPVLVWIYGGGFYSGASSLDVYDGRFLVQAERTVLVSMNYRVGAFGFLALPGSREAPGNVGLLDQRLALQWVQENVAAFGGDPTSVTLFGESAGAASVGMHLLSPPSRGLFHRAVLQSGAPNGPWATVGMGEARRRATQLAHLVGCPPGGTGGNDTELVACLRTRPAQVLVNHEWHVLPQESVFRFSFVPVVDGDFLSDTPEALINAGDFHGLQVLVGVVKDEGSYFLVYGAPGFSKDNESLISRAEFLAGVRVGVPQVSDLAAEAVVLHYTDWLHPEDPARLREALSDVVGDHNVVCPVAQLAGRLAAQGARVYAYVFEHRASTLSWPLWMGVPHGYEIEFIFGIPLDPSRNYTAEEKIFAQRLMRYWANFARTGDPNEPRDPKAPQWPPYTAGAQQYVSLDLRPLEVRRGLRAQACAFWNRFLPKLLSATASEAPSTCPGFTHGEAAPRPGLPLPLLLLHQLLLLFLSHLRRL
T3 sequence (P06276 29-602): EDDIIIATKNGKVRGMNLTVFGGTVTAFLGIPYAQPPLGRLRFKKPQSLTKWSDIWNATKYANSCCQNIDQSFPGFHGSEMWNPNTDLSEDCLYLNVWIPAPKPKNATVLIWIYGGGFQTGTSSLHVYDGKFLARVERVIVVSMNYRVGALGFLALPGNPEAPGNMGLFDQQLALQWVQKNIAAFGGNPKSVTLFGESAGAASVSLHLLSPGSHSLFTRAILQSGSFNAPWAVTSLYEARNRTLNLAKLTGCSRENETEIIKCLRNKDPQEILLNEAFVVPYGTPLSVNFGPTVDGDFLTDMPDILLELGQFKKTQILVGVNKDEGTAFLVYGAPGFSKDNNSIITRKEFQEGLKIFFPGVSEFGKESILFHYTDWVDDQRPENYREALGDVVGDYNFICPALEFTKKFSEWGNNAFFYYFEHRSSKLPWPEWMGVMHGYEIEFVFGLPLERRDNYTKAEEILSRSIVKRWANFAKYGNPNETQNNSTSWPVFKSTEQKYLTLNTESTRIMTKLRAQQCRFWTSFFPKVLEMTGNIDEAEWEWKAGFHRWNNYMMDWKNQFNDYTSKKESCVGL

As for `CN1CC[C@@]2(C)c3cc(OC(=O)NCCCN4CCOCC4)ccc3N(C)[C@@H]12` [MF 218, N-morpholinylpropylcarbamoyleseroline], in assay [1] (setting [4]), the IC50 was 3800 nM.

For `CN1CC[C@@]2(C)c3cc(OC(=O)NCCCCCCCCN4CCCCC4)ccc3N(C)[C@@H]12` [MF 241, N-piperidinyloctylcarbamoyleseroline], half-maximal inhibition in assay [1] (setting [5]) (IC50) was put at 100 nM. Also, the “Activity against human red blood cells acetylcholinesterase (in words)” value (from here on “Activity”) in assay [1] is given as “Particularly active”.

In assay [1] (setting [5]), `CN1CC[C@@]2(C)c3cc(OC(=O)NCCCCCCCCN4CCCC4)ccc3N(C)[C@@H]12` [MF 251, N-pyrrolidinyloctylcarbamoyleseroline] returned a half-maximal inhibitory concentration (IC50) of 70 nM. The “Activity” value in assay [1] was “Particularly active”.

Regarding `CN1CC[C@@]2(C)c3cc(OC(=O)NCCCCCCCCCCCCN4CCCCC4)ccc3N(C)[C@@H]12` [MF 249], the half-inhibitory concentration (IC50) in assay [1] (setting [5]) was 50 nM. For the same compound, the “Activity” value in assay [1] was “Particularly active”.

For the compound `CN1CC[C@@]2(C)c3cc(OC(=O)NCCCCCCCCN4CC=CC4)ccc3N(C)[C@@H]12` [MF 250], the IC50 in assay [1] (setting [5]) is 30 nM.

Regarding `CCN(CC)CCCCCCCCNC(=O)Oc1ccc2c(c1)[C@]1(C)CCN(C)[C@@H]1N2C` [MF 237], the IC50 in assay [2] (setting [6]) was 340 nM; in assay [2] (Cholinesterase Inhibition IC50, AChE E.eel, contact time 30'), 190 nM; in assay [2] (Cholinesterase Inhibition IC50, AChE E.eel, contact time 60'), 120 nM; in assay [1] (setting [5]), 110 nM; in assay [1] (setting [7]) it was 70 nM; in assay [1] (setting [8]) it was 30 nM. Further, the “Activity” value in assay [1] is recorded as “Particularly active”.

As for `C[C@@H]1CN(CCCCCCCCNC(=O)Oc2ccc3c(c2)[C@]2(C)CCN(C)[C@@H]2N3C)C[C@@H](C)O1` [MF 276, 8-(trans-2,6-dimethyl)morpholinyloctylcarbamoyl eseroline], in assay [1], the “Activity” value was “Particularly active”. Also, the IC50 in assay [1] (read-out: Cholinesterase Inhibition IC50, AChE hRBC, contact time 10') worked out at 70 nM; in assay [3] (read-out: Cholinesterase Inhibition IC50, BuChE hserum, contact time 10'), 250 nM.

Turning to `CN(CCCCCCCCN1CCOCC1)C(=O)Oc1ccc2c(c1)[C@]1(C)CCN(C)[C@@H]1N2C` [MF 243, N-(morpholinyloctyl),N-methyl carbamoyl eseroline], in assay [1] (setting [5]), 7400 nM corresponded to half-maximal inhibition (IC50).

On to `CN1CC[C@@]2(C)c3cc(OC(=O)NCCCCCCCCN4CCN(Cc5ccccc5)CC4)ccc3N(C)[C@@H]12` [MF 266], for which, in assay [1] (setting [5]), half-maximal inhibition (IC50) required 70 nM. For the same compound, the “Activity” value in assay [1] was “Particularly active”.

Take `CN1CC[C@@]2(C)c3cc(OC(=O)NCCN4CCOCC4)ccc3N(C)[C@@H]12` [MF 214, N-morpholinylethylcarbamoyleseroline]: the IC50 in assay [1] (setting [7]) was found to be 140 nM; in assay [1] (setting [8]) it was 110 nM; in assay [1] (setting [4]) it was 700 nM; in assay [3], 4100 nM.

`CCCN(CCC)CCCCCCCCCCNC(=O)Oc1ccc2c(c1)[C@]1(C)CCN(C)[C@@H]1N2C` [MF 257] displayed an IC50 in assay [1] (setting [5]) of 30 nM. In assay [1], the “Activity” value is recorded as “Particularly active”.

For `CN(CCCCCCCCNC(=O)Oc1ccc2c(c1)[C@]1(C)CCN(C)[C@@H]1N2C)c1ccccc1` [MF 263], the IC50 in assay [1] (setting [5]) was determined as 50 nM. The “Activity” value in assay [1] was “Particularly active”.

For `CN1CC[C@@]2(C)c3cc(OC(=O)NCCCCCCCCCN4CCOCC4)ccc3N(C)[C@@H]12` [MF 233], the IC50 in assay [2] (read-out: Cholinesterase Inhibition IC50, AChE E.eel, contact time 10') was found to be 140 nM; in assay [1] (setting [4]) it was 60 nM. Also, in assay [1], the “Activity” value is on record as “Particularly active”.

With `CN1CCN(CCCCCCCCCCCCNC(=O)Oc2ccc3c(c2)[C@]2(C)CCN(C)[C@@H]2N3C)CC1` [MF 229], the figures for the IC50 in assay [2] (setting [6]) and in assay [1] (setting [5]) were 40 nM and 60 nM, respectively. In addition, the “Activity” value in assay [1] is listed as “Particularly active”.

For `CCCCN1CCN(CCCCCCCCNC(=O)Oc2ccc3c(c2)[C@]2(C)CCN(C)[C@@H]2N3C)CC1` [MF 273], in assay [1] (setting [5]), the IC50 is 30 nM. Besides, in assay [1], the “Activity” value is recorded as “Particularly active”.

For `CCN(CC)CCCCCCCCCCCCNC(=O)Oc1ccc2c(c1)[C@]1(C)CCN(C)[C@@H]1N2C` [MF 254], inhibition in assay [1] (setting [5]) was half-maximal at 50 nM (IC50). Besides, the “Activity” value in assay [1] is recorded as “Particularly active”.

`CC(C)CN1CCN(CCCCCCCCNC(=O)Oc2ccc3c(c2)[C@]2(C)CCN(C)[C@@H]2N3C)CC1` [MF 270] returned a half-inhibitory concentration (IC50) in assay [1] (setting [5]) of 60 nM.

In turn, `CN1CC[C@@]2(C)c3cc(OC(=O)NCCCCCCCCN4CCC5(CC4)OCCO5)ccc3N(C)[C@@H]12` [MF 265] yielded a half-inhibitory concentration (IC50) in assay [1] (setting [5]) of 80 nM. The “Activity” value in assay [1] is “Particularly active”.

As for `CC(=O)N1CCN(CCCCCCCCCCNC(=O)Oc2ccc3c(c2)[C@]2(C)CCN(C)[C@@H]2N3C)CC1` [MF 252], the half-inhibitory concentration (IC50) in assay [1] (setting [5]) came out at 27 nM. Further, the “Activity” value in assay [1] is recorded as “Particularly active”.

Turning to `CN1CC[C@@]2(C)c3cc(OC(=O)NCCCCCCCCCCCN4CCOCC4)ccc3N(C)[C@@H]12` [MF 232], the IC50 in assay [2] (setting [6]) came out at 70 nM; in assay [1] (setting [4]), 40 nM.

Consider `CCCN1CCN(CCCCCCCCNC(=O)Oc2ccc3c(c2)[C@]2(C)CCN(C)[C@@H]2N3C)CC1` [MF 261], for which the IC50 in assay [1] (setting [5]) amounted to 20 nM. Besides, the “Activity” value in assay [1] was “Particularly active”.

In assay [1] (setting [5]), `COCCN(CCCCCCCCNC(=O)Oc1ccc2c(c1)[C@]1(C)CCN(C)[C@@H]1N2C)CCOC` [MF 271] returned an IC50 of 50 nM. In addition, the “Activity” value in assay [1] is listed as “Particularly active”.

`CC(=O)N1CCN(CCCCCCCCCCCCNC(=O)Oc2ccc3c(c2)[C@]2(C)CCN(C)[C@@H]2N3C)CC1` [MF 275] came in with an IC50 in assay [1] (setting [5]) of 50 nM.

In assay [1] (setting [5]), `CN1CC[C@@]2(C)c3cc(OC(=O)NCCCCCCCCCCN4CCCC4)ccc3N(C)[C@@H]12` [MF 253] returned a 50% inhibitory concentration (IC50) of 30 nM. In assay [1], the “Activity” value was “Particularly active”.

For `CN1CC[C@@]2(C)c3cc(OC(=O)NCCCCCCCC(=O)N4CCOCC4)ccc3N(C)[C@@H]12` [MF 269], the 50% inhibitory concentration (IC50) in assay [1] (setting [5]) is 120 nM.

In the case of `CCN(CC)CCCCCCCCCCNC(=O)Oc1ccc2c(c1)[C@]1(C)CCN(C)[C@@H]1N2C` [MF 247], the IC50 in assay [1] (setting [5]) came to 17 nM. The “Activity” value in assay [1] was “Particularly active”.

The compound `CC(=O)N1CCN(CCCCCCCCNC(=O)Oc2ccc3c(c2)[C@]2(C)CCN(C)[C@@H]2N3C)CC1` [MF 240] returned an IC50 in assay [1] (setting [5]) of 240 nM.

Regarding `CC(=O)N1CCN(CCNC(=O)Oc2ccc3c(c2)[C@]2(C)CCN(C)[C@@H]2N3C)CC1` [MF 246], the 50% inhibitory concentration (IC50) in assay [1] (setting [5]) came out at 20000 nM.

For the compound `CCN1CCN(CCCCCCCCNC(=O)Oc2ccc3c(c2)[C@]2(C)CCN(C)[C@@H]2N3C)CC1` [MF 262], the IC50 in assay [1] (setting [5]) stood at 30 nM. In assay [1], the “Activity” value is reported as “Particularly active”.

With `CN1CCN(C(=O)CCCCCNC(=O)Oc2ccc3c(c2)[C@]2(C)CCN(C)[C@@H]2N3C)CC1` [MF 245], in assay [1] (setting [5]), the concentration for half-maximal inhibition (IC50) came to 5500 nM.

As to `CCCN(CCC)CCCCCCCCCCCCNC(=O)Oc1ccc2c(c1)[C@]1(C)CCN(C)[C@@H]1N2C` [MF 258], in assay [1] (setting [5]), the IC50 stood at 1000 nM.

In assay [1] (setting [5]), `CN1CCN(CCCCCCCCCCNC(=O)Oc2ccc3c(c2)[C@]2(C)CCN(C)[C@@H]2N3C)CC1` [MF 255] returned a concentration for half-maximal inhibition (IC50) of 50 nM. Also, the “Activity” value in assay [1] was “Particularly active”.

As a reminder, the IC50 is the concentration at which inhibition is half-maximal.
